Columns and labels:
[1] = molecular target: T1, Lysophosphatidic acid receptor 1 (Homo sapiens, UniProt Q92633); assay: Agonistic activity against lysophosphatidic acid receptor 1 using [35S]GTP-gamma-S as radioligand tested in vitro; assay type: functional
[2] = molecular target: T1, Lysophosphatidic acid receptor 1; assay: Maximal efficacy to that of maximal efficacy of LPA against lysophosphatidic acid receptor 1 was determined in vitro
[3] = molecular target: T2, Lysophosphatidic acid receptor 2 (Homo sapiens, UniProt Q9HBW0); assay: Agonistic activity against lysophosphatidic acid receptor 2 using [35S]GTP-gamma-S as radioligand tested in vitro; assay type: functional
[4] = molecular target: T2, Lysophosphatidic acid receptor 2; assay: Maximal efficacy to that of maximal efficacy of LPA against lysophosphatidic acid receptor 2 was determined in vitro
[5] = molecular target: T3, Lysophosphatidic acid receptor 3 (Homo sapiens, UniProt Q9UBY5); assay: Agonistic activity against lysophosphatidic acid receptor 3 using [35S]GTP-gamma-S as radioligand tested in vitro; assay type: functional
T3 sequence (Q9UBY5 whole entry): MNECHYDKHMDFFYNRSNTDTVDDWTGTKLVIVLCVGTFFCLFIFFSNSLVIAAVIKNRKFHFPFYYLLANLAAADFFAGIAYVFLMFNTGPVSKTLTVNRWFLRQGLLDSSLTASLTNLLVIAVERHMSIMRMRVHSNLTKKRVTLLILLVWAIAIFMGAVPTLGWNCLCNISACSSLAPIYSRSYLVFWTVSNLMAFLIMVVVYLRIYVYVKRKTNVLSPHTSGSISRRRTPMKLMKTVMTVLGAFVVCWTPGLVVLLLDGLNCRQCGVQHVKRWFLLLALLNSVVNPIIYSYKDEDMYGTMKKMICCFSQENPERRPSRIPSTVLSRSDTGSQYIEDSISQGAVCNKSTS

[6] = molecular target: T4, Lysophosphatidic acid receptor 3 (Homo sapiens) (UniProt Q9UBY5); assay: Maximal efficacy to that of maximal efficacy of LPA against lysophosphatidic acid receptor 3 was determined in vitro
T4 sequence (whole entry): T3 sequence (Q9UBY5 whole entry)

[7] = molecular target: T1, Lysophosphatidic acid receptor 1; assay: Agonistic activity against lysophosphatidic acid receptor 1 receptor using [35S]GTP-gamma-S as radioligand tested in vitro; assay type: functional

T2 sequence (Q9HBW0 whole entry): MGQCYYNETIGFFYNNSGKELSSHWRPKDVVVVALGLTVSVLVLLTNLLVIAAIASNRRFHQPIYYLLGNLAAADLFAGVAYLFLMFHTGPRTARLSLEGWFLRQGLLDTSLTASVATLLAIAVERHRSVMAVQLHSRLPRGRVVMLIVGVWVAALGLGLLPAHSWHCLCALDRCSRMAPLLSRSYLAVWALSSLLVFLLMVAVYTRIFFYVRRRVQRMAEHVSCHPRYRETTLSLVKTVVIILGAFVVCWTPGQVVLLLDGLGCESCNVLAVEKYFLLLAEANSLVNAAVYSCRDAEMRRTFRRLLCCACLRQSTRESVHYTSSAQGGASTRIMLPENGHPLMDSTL
T1 sequence (Q92633 whole entry): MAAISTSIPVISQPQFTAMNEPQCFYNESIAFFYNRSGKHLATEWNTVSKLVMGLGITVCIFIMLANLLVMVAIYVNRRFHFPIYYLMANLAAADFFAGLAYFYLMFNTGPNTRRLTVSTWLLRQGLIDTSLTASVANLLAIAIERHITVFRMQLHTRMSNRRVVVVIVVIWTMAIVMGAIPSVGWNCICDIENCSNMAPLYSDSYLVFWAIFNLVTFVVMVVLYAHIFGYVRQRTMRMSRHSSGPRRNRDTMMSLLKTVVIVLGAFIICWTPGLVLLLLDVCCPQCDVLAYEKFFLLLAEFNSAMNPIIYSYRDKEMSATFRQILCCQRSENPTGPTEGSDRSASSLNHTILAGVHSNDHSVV

| SMILES | EC50 [1] [nM] | Emax [2] [%] | EC50 [3] [nM] | Emax [4] [%] | EC50 [5] [nM] | Emax [6] [%] | EC50 [7] [nM] |
| --- | --- | --- | --- | --- | --- | --- | --- |
| CCCCCCCC/C=C\CCCCCCCC(=O)OC[C@@H](O)COP(=O)(O)O [LYSOPHOSPHATIDIC ACID] | 17 | 100 |  | 100 |  | 100 |  |
| CCCCCCCC/C=C\CCCCCCCC(=O)NCCC(=O)P(O)(O)=S | 40 | 80 | 108 | 46 | > 5000 |  |  |
| CCCCCCCC/C=C\CCCCCCCC(=O)NCCOP(=O)(O)O |  | 100 |  | 110 |  |  |  |
| CCCCCCCC/C=C\CCCCCCCC(=O)NCCCP(=O)(O)O | 1950 | 50 | > 5000 |  | > 5000 |  |  |
| CCCCCCCC/C=C\CCCCCCCC(=O)NCCC(O)(P(=O)(O)O)P(=O)(O)O | > 5000 |  | > 5000 |  | > 5000 |  |  |
| CCCCCCCC/C=C\CCCCCCCC(=O)NCCC(F)P(=O)(O)O (stereo unspecified) | > 5000 |  | 1960 | 100 | > 5000 |  |  |

Results, then the compound that gave them:

| EC50 [1] [nM] | Emax [2] [%] | EC50 [3] [nM] | Emax [4] [%] | EC50 [5] [nM] | Emax [6] [%] | EC50 [7] [nM] | SMILES |
| --- | --- | --- | --- | --- | --- | --- | --- |
| 221 | 80 | 1090 | 90 | > 5000 |  |  | CCCCCCCC/C=C\CCCCCCCC(=O)NCCC(=O)P(=O)(O)O |
| 318 | 50 | > 5000 |  | > 5000 |  |  | CCCCCCCC/C=C\CCCCCCCC(=O)NCCC(=S)P(=O)(O)O |
|  | 80 | 2070 | 90 | > 5000 |  | 1230 | CCCCCCCC/C=C\CCCCCCCC(=O)NCCC(O)P(=O)(O)O (stereo unspecified) |

From ChEMBL document CHEMBL1147466 (Bioorg Med Chem Lett, 2004)
